Laboratory results from PubChem BioAssay AID504575 (Southern Research Specialized Biocontainment Screening …, 2011).

Tested on: MAGI cell cytotoxicity, 2% serum
Test: viability loss in MAGI reporter cells – cell-based, CXCR4-tropic MAGI assay, 2% serum, set 2, cytotoxicity control for HIV-1 antiviral lead project, dose response (AID 504575)

SMILES: COc1ccccc1Cn1c(O)cc2nn(-c3nc4ccccc4s3)c(=O)c-2c1C
- TC50: 43.2 µM

SMILES: Cc1c2c(=O)n(-c3nc4ccccc4s3)nc-2cc(O)n1CCC(C)C
- TC50: 65 µM

SMILES: Cc1c2c(=O)n(-c3nc4ccccc4s3)nc-2cc(O)n1CCc1cccs1
- TC50: 74.8 µM

SMILES: Cc1c2c(=O)n(-c3nc4ccccc4s3)nc-2cc(O)n1CCc1ccc(O)cc1
- TC50: 20.5 µM

SMILES: Cc1c2c(=O)n(-c3nc4ccccc4s3)nc-2cc(O)n1Cc1ccccc1Cl
- TC50: 32.9 µM

SMILES: COc1ccc(CCn2c(O)cc3nn(-c4nc5ccccc5s4)c(=O)c-3c2C)cc1
- TC50: 13.8 µM

SMILES: COc1ccc(Cn2c(O)cc3nn(-c4nc5ccccc5s4)c(=O)c-3c2C)cc1
- TC50: 41.1 µM
